Read-outs that look alike come from different tables or passages of the source.
Key:
NCI-H358 cells = experiment: 3D cell proliferation assay (Cell Titer-Glo 3D, 7 days); assay type: cell-based; settings: NCI-H358 3D, ultra-low attachment plate
Description: NCI-H358 cells (ATCC® CRL-5807™) were plated in a 384-well Black/Clear Round Bottom Ultra-Low Attachment Microplate (Corning) in medium (RPMI-1640+10% FBS) at a density of 1000 cells in 50 μL per well, then incubated overnight at 37° C. and 5% CO2. Cells were treated with test compounds at 9 concentrations within a specified concentration range (e.g., 0.5 nM-10 μM) for generation of dose response curves. Test compounds were prepared by 1:3 serial dilution in DMSO from a specified starting concentration (e.g., 20 μM, 2 μM or 0.2 μM) and then added to wells of the assay plate in a total volume of 150 nL DMSO. The cells were further incubated at 37° C. and 5% CO2 for 7 days. Cell viability was assessed by adding 40 μL of Cell Titer-Glo® 3D reagent (Cat. No.: G9683, Promega) to each well and reading luminescence after mixing and incubation of the samples. The IC50 value of each test compound was calculated with XLFit curve fitting software.

MIA PaCa-2 = experiment: Cell proliferation assay panel (Cell Titer-Glo, 72 hr); assay type: cell-based
Description: Potency of compounds was determined in cell proliferation assays in a panel of cancer cell lines. Cells were seeded in 384-well plates (Corning, Cat. #3765) at specified densities in 40 μL of culture medium and incubated overnight at 37° C. in a 5% CO2 incubator (culture conditions). With a robotic dispenser, serially diluted test compounds were added in a volume of 20 nL DMSO to wells in the culture plate to achieve the final desired concentrations of test compounds, and the cells were further incubated in culture conditions for 72 hr. The assay was terminated by addition of 25 μL of Cell Titer-Glo reagent (Promega, Madison, Wis.) to each well. Contents were mixed, the plate was incubated for 10 min at room temperature and luminescence was measured. The IC50 value of each test compound was calculated with XLFit curve fitting software. Results are shown in Table 4. ‘+++’ indicates IC50 values≤300 nM, ‘++’ indicates IC50 values between 300 nM-3 μM, and ‘+’ indicates IC50 values≥3 μM.

KRAS G12C protein = KRAS G12C protein (Homo sapiens, UniProt P01116, G12C); experiment: Nucleotide exchange assay (Method III, KRAS G12C/Raf-RBD TR-FRET); assay type: biochemical; settings: SOS1-mediated exchange of GDP for GTP, 18 hr compound incubation
KRAS G12C protein, sequence (P01116 1-188 isoform P01116-2 G12C): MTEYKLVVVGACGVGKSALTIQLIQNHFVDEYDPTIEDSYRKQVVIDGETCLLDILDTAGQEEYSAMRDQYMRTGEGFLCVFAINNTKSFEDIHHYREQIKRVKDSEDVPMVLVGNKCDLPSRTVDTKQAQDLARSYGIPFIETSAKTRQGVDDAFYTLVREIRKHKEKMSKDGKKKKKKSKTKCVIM
Description: Method III. Inhibition of SOS1-mediated exchange of GDP for GTP on the KRAS G12C protein was measured in a biochemical assay that monitors association of KRAS G12C protein with the Ras-binding domain of Raf (Raf-RBD), where the association is coupled to exchange of GDP to GTP on the KRAS G12C protein. The assay was performed at WuXi AppTec (Shanghai, China). Compounds were serially diluted in 3-fold dilutions to 11 concentrations and spotted into the wells of an assay plate in a total volume of 150 nL DMSO per well. A 2× enzyme mix was prepared by diluting GDP-bound, His-tagged KRAS G12C to 25 nM in assay buffer. 10 μL/well of 2× enzyme mix was added to all wells, and the plate was sealed and incubated overnight (18 hr) at 23° C. 4×SOS1/GDP and 4×SOS1/GTP were prepared in assay buffer. 5 μL/well of 4×SOS1/GDP mix was added to negative control wells, 5 μL/well of 4×SOS1/GTP mix was added to the remaining wells, and the plate was further incubated at 23° C. for 1 hr. Finally, FLAG-tagged Raf-RBD is added to the reaction mixture along with a pair of FRET donor- and acceptor-conjugated antibodies specific for the FLAG-tagged Raf-RBD and His-tagged KRAS G12C proteins. A 4×Raf-RBD/Tb-anti-FLAG/D2-anti-His mix was prepared in assay buffer, and 5 μL/well of the mix was added to all wells, followed by incubation at room temperature for 2 hr. The TR-FRET signals, which increase with association of KRAS G12C and Raf-RBD, were measured on a Perkin Elmer Envision 2104 plate reader, and data were analyzed by non-linear regression to obtain IC50 values for inhibition by compounds. Table 2 includes results of the assay of Method III. ‘+++’ indicates IC50 values≤300 nM, ‘++’ indicates IC50 values between 300 nM-3 μM, and ‘+’ indicates IC50 values≥3 μM.

[1] = tested on: NCI-H358 subcutaneous xenograft tumors; experiment: NCI-H358 mouse xenograft model
Description: NCI-H358 cells were injected subcutaneously (5×10^6 cells in 0.1 mL of PBS) into the right flanks of 6-8-week-old female BALB/c nude mice and allowed to grow until the average tumor size reached 150-200 mm^3. The mice were then stratified into treatment groups of 4-8 animals and treatment initiated on Day 0. Test compound or vehicle (1% Tween 80, 2% HPMC, and 97% water) was administered orally, once daily, for 21 days. Tumor size was measured twice weekly in two dimensions using a caliper, and the volume was expressed in mm^3 using the formula: V=(a×b^2/2) where a and b are the long and short diameters of the tumor, respectively. Tumor Growth Inhibition (TGI) was calculated for each group using the formula: TGI %=(1−Ti/Vi)×100, where Ti is the mean tumor volume of the treatment group on the measurement day, and Vi is the mean tumor volume of the control group on the measurement day. Animal body weight was monitored regularly as an indicator of toxicity. […] Data points represent the group mean, and error bars represent the standard error of the mean (SEM).

Row | SMILES | IC50 (KRAS G12C protein) | IC50 (NCI-H358 cells; Homo sapiens, NCI-H358, 168 h) | also measured
1 | C=C(F)C(=O)N1CCN(c2nc(OC[C@@H]3CC(F)(F)CN3C)nc3c2COC(c2cccc4cccc(Cl)c24)C3)C[C@@H]1CC#N (single isomer, unassigned) [228 (Isomer A)] | ≤ 300 nM | – | IC50 (NCI-H358 cells): ≤ 100 nM; IC50 (MIA PaCa-2; Homo sapiens, MIA PaCa-2, 72 h): 300 to 3000 nM
2 | C=C(F)C(=O)N1CCN(c2nc(OCC34CCCN3CCC4)nc3c2COC(c2cccc4cccc(Cl)c24)C3)C[C@@H]1CC#N (single isomer, unassigned) [266 (Isomer B)] | ≤ 300 nM | ≤ 100 nM | IC50 (MIA PaCa-2): ≤ 300 nM
3 | C=C(F)C(=O)N1CCN(c2nc(OC[C@@H]3CCCN3C)nc3c2COC(c2cccc4sc(N)nc24)C3)C[C@@H]1CC#N (single isomer, unassigned) [260 (Isomer A)] | ≤ 300 nM | 100 to 2000 nM | IC50 (MIA PaCa-2; Homo sapiens, MIA PaCa-2, 72 h): 300 to 3000 nM
4 | C=C(F)C(=O)N1CCN(c2nc(OC[C@@H]3CCCN3C)nc3c2COC(c2nc(N)cc4ccccc24)C3)C[C@@H]1CC#N (single isomer, unassigned) [259 (Isomer B)] | ≤ 300 nM | – | IC50 (MIA PaCa-2): ≤ 300 nM
5 | C=CC(=O)N1CCN(c2nc(OC[C@@H]3CCCN3C)nc3c2COC(c2cccc4cccc(Cl)c24)C3)C[C@@H]1CC#N (single isomer, unassigned) [38 (Isomer B)] | ≤ 300 nM | ≤ 100 nM | TGI ([1]; 10 mg/kg orally once daily, Day 20 after treatment start): 22.4%; TGI ([1]; 30 mg/kg orally once daily, Day 20 after treatment start (day not restated for comparators)): 26.7%; TGI ([1]; 100 mg/kg orally once daily, Day 20 after treatment start): 50.4%
6 | C=C(F)C(=O)N1CCN(c2nc(OC[C@@H]3CCCN3C)nc3c2COC(c2cccc4cccc(Cl)c24)C3(C)C)C[C@@H]1CC#N (single isomer, unassigned) [258 (Isomer B)] | ≤ 300 nM | ≤ 100 nM | IC50 (MIA PaCa-2; Homo sapiens, MIA PaCa-2, 72 h): ≤ 300 nM
7 | C=C(Cl)C(=O)N1CCN(c2nc(OC[C@@H]3CCCN3C)nc3c2COC(c2cccc4cccc(Cl)c24)C3)C[C@@H]1CC#N (single isomer, unassigned) [239 (Isomer B)] | ≤ 300 nM | ≤ 100 nM | IC50 (MIA PaCa-2; Homo sapiens, MIA PaCa-2, 72 h): ≤ 300 nM
8 | C=CC(=O)N1CCN(c2nc(OC[C@@H]3CCCN3C)nc3c2COC(c2cccc4cccc(Cl)c24)C3)CC1 (single isomer, unassigned) [40 (Isomer A)] | ≤ 300 nM | – | IC50 (NCI-H358 cells): 100 to 2000 nM
9 | C=C(F)C(=O)N1CCN(c2nc(OC[C@@H]3CC(F)(F)CN3C)nc3c2COC(c2cccc4cccc(Cl)c24)C3)C[C@@H]1CC#N (single isomer, unassigned) [228 (Isomer B)] | ≥ 3000 nM | – | IC50 (NCI-H358 cells): ≥ 2000 nM
10 | C=C(F)C(=O)N1CCN(c2nc(OCC34CCCN3CCC4)nc3c2COC(c2cccc4cccc(Cl)c24)C3)C[C@@H]1CC#N (single isomer, unassigned) [266 (Isomer A)] | 300 to 3000 nM | – | IC50 (MIA PaCa-2; Homo sapiens, MIA PaCa-2, 72 h): 300 to 3000 nM
11 | C=C(F)C(=O)N1CCN(c2nc(OC[C@H]3CCCN3C)nc3c2COC(c2cccc4cccc(Cl)c24)C3)C[C@@H]1CC#N (single isomer, unassigned) [267 (Isomer B)] | ≤ 300 nM | – | IC50 (MIA PaCa-2): ≤ 300 nM
12 | C=CC(=O)N1CCN(c2nc(OC[C@@H]3CCCN3C)nc3c2COC(c2cccc4cccc(Cl)c24)C3)CC1 (single isomer, unassigned) [40 (Isomer B)] | ≥ 3000 nM | – | IC50 (NCI-H358 cells): ≥ 2000 nM
13 | C=C(F)C(=O)N1CCN(c2nc(OC[C@@H]3CCCN3C)nc3c2COC(c2nc(N)cc4ccccc24)C3)C[C@@H]1CC#N (single isomer, unassigned) [259 (Isomer A)] | 300 to 3000 nM | – | IC50 (MIA PaCa-2): ≥ 3000 nM
14 | C=C(F)C(=O)N1CCN(c2nc(OC[C@@H]3CCCN3C)nc3c2CO[C@H](c2cccc4cccc(Cl)c24)C3)C[C@@H]1CC#N (single isomer, unassigned) [43 (Isomer A)] | ≥ 3000 nM | ≥ 2000 nM | –
15 | C=C(F)C(=O)N1CCN(c2nc(OC[C@@H]3CCCN3C)nc3c2CC=C(c2cccc4cccc(Cl)c24)O3)C[C@@H]1CC#N [Compound 178, 2-((S)-4-(7-(8-chloronaphthalen-1-yl)-2-(((S)-1-methylpyrrolidin-2-yl)methoxy)-5H-pyrano[2,3-d]pyrimidin-4-yl)-1-(2-fluoroacryloyl)piperazin-2-yl)acetonitrile] | ≤ 300 nM | 100 to 2000 nM | –
16 | C=C(F)C(=O)N1CCN(c2nc(OC[C@H]3CCCN3C)nc3c2COC(c2cccc4cccc(Cl)c24)C3)C[C@@H]1CC#N (single isomer, unassigned) [267 (Isomer A)] | 300 to 3000 nM | – | IC50 (MIA PaCa-2): ≥ 3000 nM
17 | C=CC(=O)N1CCN(c2nc(OC[C@@H]3CCCN3C)nc3c2CC=C(c2cccc4cccc(Cl)c24)O3)C[C@@H]1CC#N [Compound 181, 2-((S)-1-acryloyl-4-(7-(8-chloronaphthalen-1-yl)-2-(((S)-1-methylpyrrolidin-2-yl)methoxy)-5H-pyrano[2,3-d]pyrimidin-4-yl)piperazin-2-yl)acetonitrile] | ≤ 300 nM | ≤ 100 nM | –
18 | C=C(F)C(=O)N1CCN(c2nc(OC3CN(C)CC3C)nc3c2COC(c2cccc4cccc(Cl)c24)C3)C[C@@H]1CC#N (single isomer, unassigned) [272 (Isomer A)] | ≥ 3000 nM | – | –
19 | C=CC(=O)N1CCN(c2nc(OC[C@@H]3CCCN3C)nc3c2OCC(c2cccc4cccc(Cl)c24)O3)CC1 (single isomer, unassigned) [135 (Isomer A)] | ≥ 3000 nM | – | –
20 | CN(C)C/C=C/C(=O)N1CCN(c2nc(OC[C@@H]3CCCN3C)nc3c2COC(c2cccc4cccc(Cl)c24)C3)C[C@@H]1CC#N (single isomer, unassigned) [242 (Isomer A)] | ≥ 3000 nM | – | –
21 | C=C(F)C(=O)N1CCN(c2nc(NC3CCN(S(C)(=O)=O)CC3)nc3c2COC(c2cccc4cccc(Cl)c24)C3)C[C@@H]1CC#N (single isomer, unassigned) [231 (Isomer A)] | ≥ 3000 nM | – | –
22 | C=C(F)C(=O)N1CCN(c2nc(OC[C@@H]3CCCN3C)nc3c2COC(c2cccc4cccc(Cl)c24)C3)CC1(C)C (single isomer, unassigned) [238 (Isomer A)] | ≥ 3000 nM | – | –
23 | C=C(F)C(=O)N1CCN(c2nc(N3CCC(N(CC)CC)CC3)nc3c2COC(c2cccc4cccc(Cl)c24)C3)C[C@@H]1CC#N (single isomer, unassigned) [230 (Isomer A)] | ≥ 3000 nM | – | –
24 | C=C(F)C(=O)N1CCN(c2nc(OC[C@@H]3CCCN3C)nc3c2OCC(c2cccc4cccc(Cl)c24)O3)[C@@H](C)C1 (single isomer, unassigned) [136 (Isomer A)] | ≥ 3000 nM | – | –
25 | C=C(C)C(=O)N1CCN(c2nc(OC[C@@H]3CCCN3C)nc3c2COC(c2cccc4cccc(Cl)c24)C3)C[C@@H]1CC#N (single isomer, unassigned) [240 (Isomer B)] | ≥ 3000 nM | – | –

— patent US20230023009A1, “HETEROCYCLIC COMPOUNDS AND METHODS OF USE THEREOF” (SPARCBIO LLC, priority 2020, published 2023)
